According to the supplement of paper PMC10949913:

Legend:
Experiment in all cases: area under concentration-response curve (viability) (AUC (a.u.)); higher = less active
Conditions in all cases: 48 h
[1] = system: NCI-H295R
In short: (§1)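 Three adrenocortical carcinoma cell lines were plated in 1,536-well plates at 500–1,000 cells/well in 5 µL medium, and 23 nL of each library compound was added at 11 concentrations. After 48 h, CellTiter-Glo was applied for 15 minutes at room temperature before luminescence was read. Each plate's signals were normalised to vehicle and empty-well controls. AC50 and area under the curve were taken from fitted concentration-response curves, with only inhibitory or non-responding curve classes retained.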

[2] = system: CU-ACC2
In short: as §1

[3] = system: CU-ACC1
In short: as §1

SMILES	area under concentration-response curve [1]	area under concentration-response curve [2]	area under concentration-response curve [3]
NC[C@H]1O[C@H](O[C@H]2[C@H](O)[C@@H](O[C@H]3O[C@H](CO)[C@@H](O)[C@H](N)[C@H]3O)[C@H](N)C[C@@H]2N)[C@H](N)C[C@@H]1O	535	579	486
C[C@]12CC[C@@H]3c4ccc(O)cc4CC[C@H]3[C@@H]1[C@@H](O)[C@@H](O)[C@@H]2O	520	565	494
CC(C)[C@H]1C(=O)N[C@H](CO)Cc2c[nH]c3cccc(c23)N1C	575	539	384
COc1ccc2[nH]cc(CCNC(C)=O)c2c1	578	668	592
COCC1(CO)C(=O)C2CCN1CC2 (stereo not given)	468	513	443
COc1cc([C@@H]2c3cc4c(cc3[C@@H](O)C3COC(=O)C32)OCO4)cc(OC)c1O (stereo not given in full)	511	559	500
Nc1nc(OCc2cc(Br)cs2)c2[nH]cnc2n1	552	616	516
CNCCN(C)Cc1c[nH]nc1-c1ccc(O[C@H]2C[C@H](OCCC3CCOCC3)C2)cc1	546	512	520
OCCN1C[C@H](O)[C@@H](O)[C@H](O)[C@H]1CO	489	540	519
O=[S+]([O-])(c1cccc2cnccc12)N1CCCNCC1	534	560	502
N[C@@H](CC(=O)N1CCn2c(nnc2C(F)(F)F)C1)Cc1cc(F)c(F)cc1F	555	597	554
CC1(C)CC(O)CC(C)(C)N1[O]	511	626	517
COc1ccccc1[C@H](c1cccc2ccccc12)[C@@](C)(C#N)C(=O)N1CCC(c2cccc(C(F)(F)F)c2)CC1	587	665	566
C[N+]1(C)[C@@H]2CC(OC(=O)[C@H](CO)c3ccccc3)C[C@H]1[C@@H]1O[C@@H]12 (stereo not given in full)	500	556	531
CCC(=O)O[C@@]1(CC[C@H]2[C@@H]3CCC/4=C/C(=O)CC[C@]4(C)[C@H]3CC[C@]12C)C(=O)CO	518	585	508
N[S+]([O-])(=O)C1=C(Cl)C=C2\N=C/N[S+]([O-])(=O)C2=C1	576	646	548
NC(=O)c1ncn([C@@H]2O[C@H](CO)[C@@H](O)[C@H]2O)n1	530	504	511
CCCCCOC(=O)NC\1=N\C(=O)N(\C=C1F)[C@@H]2O[C@H](C)[C@@H](O)[C@H]2O	559	606	512
OC[C@H]1O[C@H](C[C@@H]1O)N2\C=C(F)/C(=O)NC2=O	497	584	516
COC1=CC=C2[C@H]3CC[C@]4(C)[C@H](CC[C@H]4[C@@H]3CCC2=C1)NCCCCCCN5C(=O)\C=C/C5=O	517	460	496
